Results: PubChem BioAssay (NCI)
Several values for one entry are separate records, joined by “and”; a condition that tells them apart may be missing. Equal values may be shown once.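 All cell lines were grown in 96-well plates and treated with compound for 48 hours. GI50 = concentration required for 50% inhibition of growth. TGI: concentration producing complete growth inhibition.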

How the values were obtained:
Assay in all cases: NCI tumour cell line growth inhibition, 48 h
COLO 205 colon = test system: COLO 205 colon
RXF 393 renal = test system: RXF 393 renal
CCRF-CEM leukemia = test system: CCRF-CEM leukemia
NCI-H460 lung = test system: NCI-H460 lung
SN12C renal = test system: SN12C renal
OVCAR-3 ovarian = test system: OVCAR-3 ovarian
KM12 colon = test system: KM12 colon
HL-60(TB) leukemia = test system: HL-60(TB) leukemia
MDA-MB-231 breast = test system: MDA-MB-231 breast
T-47D breast = test system: T-47D breast

| Structure (SMILES) | GI50 (COLO 205 colon) [µM] | TGI (COLO 205 colon) | GI50 (RXF 393 renal) [µM] | TGI (RXF 393 renal) | GI50 (CCRF-CEM leukemia) [µM] | TGI (CCRF-CEM leukemia) | GI50 (NCI-H460 lung) [µM] | TGI (NCI-H460 lung) | TGI (SN12C renal) | GI50 (OVCAR-3 ovarian) [µM] | TGI (OVCAR-3 ovarian) | GI50 (KM12 colon) [µM] | TGI (KM12 colon) | GI50 (HL-60(TB) leukemia) [µM] | TGI (HL-60(TB) leukemia) | GI50 (MDA-MB-231 breast) [µM] | TGI (MDA-MB-231 breast) [µM] | GI50 (T-47D breast) [µM] | TGI (T-47D breast) [µM] | GI50 (SN12C renal) [µM] |
| --- | --- | --- | --- | --- | --- | --- | --- | --- | --- | --- | --- | --- | --- | --- | --- | --- | --- | --- | --- | --- |
| CC(=O)OCC1OC(OC2CC3C(C)(C)C(O)CC[C@]3(C)C3CCC45CC4(CC[C@H]5C(C)CC(O)C4OC4(C)C)[C@]23C)C(O)C(O)C1O (stereo not given in full) | 3.4 | 13.8 µM and 11.9 µM | 9.7 | 10.7 µM and 38.5 µM | 2.56 | 6.74 µM and 6.72 µM | 5.08 | 16.8 µM and 20.4 µM | 15.2 µM and 21.6 µM | 4.26 | 12.5 µM and 17.6 µM | 4.66 | 15.6 µM and 17.3 µM | 1.73 | 3.67 µM and 4.18 µM |  |  |  |  |  |
| O=Nc1ccc2ccccc2c1O | 4.79 | 16.6 µM | 14 | 27.3 µM |  |  | 15.5 | 36.6 µM | 5.26 µM | 1.9 | 5.01 µM | 6.23 | 19.2 µM |  |  | 10 | 25.1 | 2.75 | 6.08 | 1.9 |
| CCCCOC(=O)NC(=O)c1cn(CCSCCOC(=O)NCCCCCCNC(=O)OCCSCCn2cc(C(=O)NC(=O)OCCCC)c(=O)[nH]c2=O)c(=O)[nH]c1=O |  | > 100 µM |  | > 100 µM |  |  |  | > 100 µM | > 100 µM |  | > 100 µM |  | > 100 µM |  | > 100 µM |  |  |  |  |  |
| NC(=O)C(c1ccccc1)N1CCOCC1 (stereo not given) |  | > 100 µM |  | > 100 µM |  | > 100 µM |  | > 100 µM | > 100 µM |  | > 100 µM |  | > 100 µM |  | > 100 µM |  |  |  |  |  |
| c1ccc2c(c1)[nH]c1cnc3c4cccnc4[nH]c3c12 |  | 30.3 µM |  | 34.7 µM |  | 54.2 µM |  | 50.1 µM | 34.1 µM |  | 32.2 µM |  |  |  | 35.5 µM |  |  |  |  |  |
| CC(=O)OC1CC2(O)C3CCC4CC(O)CCC4(C)C3CCC2(C)C1C1=CC(=O)OC1 (stereo not given) |  | 0.76 µM |  |  |  | 1.69 µM |  | 0.124 µM | 0.16 µM |  | 0.172 µM |  | 1.87 µM |  | 0.237 µM |  | 6.61 |  | 0.73 |  |
| O=C(C(=O)N1CC2C=CC1CC2)c1c[nH]c2ccccc12 (stereo not given) |  | > 100 µM |  | > 100 µM |  | > 100 µM |  | > 100 µM | > 100 µM |  |  |  | > 100 µM |  | > 100 µM |  |  |  |  |  |
| O=C1c2c(n(Cc3ccccc3)c(=O)n2Cc2ccccc2)C(=O)N1Cc1ccccc1 |  | > 100 µM |  | > 100 µM |  | > 100 µM |  | > 100 µM | > 100 µM |  | > 100 µM |  | > 100 µM |  | > 100 µM |  |  |  |  |  |
| Cc1ccc(SC2=CC(=O)c3nc4ccccc4c4ccnc2c34)cc1 | 39.4 | > 85.6 µM | 21.9 | 50 µM |  |  | 61.4 | > 100 µM | > 100 µM | 23.2 | > 54.7 µM | 20.9 | 47.5 µM |  |  | 23.4 | 60 | 24.3 | 47.2 | 66.6 |
| Cc1cc(=O)oc2cc(OCc3c(F)cccc3Cl)ccc12 |  |  |  | 27.5 µM |  |  |  |  | > 100 µM |  | > 100 µM |  |  |  | > 100 µM |  | > 100 |  | > 100 |  |
| CCN1c2ccccc2C(Cl)(c2ccc(N(C)C)cc2)c2ccccc21 | 2.31 | 7.73 µM |  |  | 2.34 | 17 µM | 7.77 | 23.4 µM | 19.2 µM | 2.93 | 8.53 µM | 4.41 | 15.6 µM | 1.89 | 4.7 µM | 13.1 | 37.5 | 4.22 | 64.2 | 4.88 |
| COc1ccccc1NC(=O)C1=C(C)NC(C)=C(C(=O)Nc2ccccc2OC)C1c1ccc(C)cc1 |  | 44 µM |  | > 100 µM |  |  |  | > 100 µM | > 100 µM |  | > 100 µM |  | > 100 µM |  |  |  |  |  |  |  |
| COc1ccc(/C=C\c2cc(OC)c(OC)c(OC)c2)cc1OC(=O)CCC(=O)O | 1.68 | 38.5 µM |  |  |  | > 100 µM |  | 31.5 µM | > 100 µM |  |  |  |  |  | < 0.0001 µM |  |  |  | 97.1 |  |
| O=C1C(=O)N(c2ccc(Cl)cc2Cl)C(=O)C(=O)C1c1nc2ccccc2o1 |  | > 100 µM |  |  |  | > 100 µM |  | > 100 µM | > 100 µM |  | > 100 µM |  | > 100 µM |  | > 100 µM |  |  |  |  |  |
| CC1=CCC23C(C1)OC(Br)(C=CC2(C)O)C3(C)C (stereo not given) |  | > 100 µM |  |  |  | > 100 µM |  | > 100 µM | > 100 µM |  |  |  | > 100 µM |  | > 100 µM |  |  |  |  |  |
| CC(=O)CCCCO |  | > 100 µM |  | > 100 µM |  | > 100 µM |  | > 100 µM | > 100 µM |  | > 100 µM |  | > 100 µM |  | > 100 µM |  |  |  |  |  |
| O=C1CN(C(=O)c2ccccc2)Cc2[nH]c3ccccc3c21 |  | > 100 µM |  | > 100 µM |  | > 100 µM |  | > 100 µM | > 100 µM |  | > 100 µM |  | > 100 µM |  | > 100 µM |  |  |  |  |  |
| CCOC(=O)C1SC(=Nc2ccc(Cl)c(Cl)c2)N=C1C (stereo not given) |  | 76.3 µM |  | 52.3 µM |  | 31.3 µM |  | > 100 µM | 53 µM |  | 60.6 µM |  | > 100 µM |  | 59.7 µM |  |  |  |  |  |
| C=CCC(N[C@H](CO)c1ccccc1)c1cn(C(=O)OCC)c2ccccc12 (stereo not given in full) | 19.5 | 65.6 µM | 0.98 | 21.3 µM | 44 | > 100 µM | 37.3 | > 100 µM | 32.7 µM | 11.6 | 25 µM | 16.7 | 34.8 µM |  |  | 15.7 | 31.3 | 25.1 | > 100 | 18.3 |
| CN1CC(C(=O)C2C(=O)c3ccccc3C2=O)C(=O)C(=O)C(C(=O)C2C(=O)c3ccccc3C2=O)C1 (stereo not given) |  | > 100 µM |  |  |  | > 100 µM |  | > 100 µM | > 100 µM |  | > 10 µM |  | > 100 µM |  | > 100 µM |  |  |  |  |  |
| COc1ccc(-n2c3c(c4c(CN5CCOCC5)c(O)ccc42)CCc2ccccc2C3=O)cc1 | > 100 | > 100 µM | 14.8 | > 100 µM |  |  | > 100 | > 100 µM | > 100 µM | 25.4 | > 100 µM | > 100 | > 100 µM | 22.3 | > 100 µM | 52.1 | > 100 | > 100 | > 100 | 43.3 |
